biological target: T1, HMG-CoA reductase (Homo sapiens, UniProt P04035); test: HMG-CoA reductase (HMGCR) degradation in HepG2 cells by western blotting; assay type: cell-based; conditions: treated for 18 hours, ratio of HMG-CoA reductase to GAPDH, read-out: DC50
T1 construct: endogenous in cells; host or cells: HepG2 (Korea Cell Line Bank)
T1 sequence (P04035 1-888): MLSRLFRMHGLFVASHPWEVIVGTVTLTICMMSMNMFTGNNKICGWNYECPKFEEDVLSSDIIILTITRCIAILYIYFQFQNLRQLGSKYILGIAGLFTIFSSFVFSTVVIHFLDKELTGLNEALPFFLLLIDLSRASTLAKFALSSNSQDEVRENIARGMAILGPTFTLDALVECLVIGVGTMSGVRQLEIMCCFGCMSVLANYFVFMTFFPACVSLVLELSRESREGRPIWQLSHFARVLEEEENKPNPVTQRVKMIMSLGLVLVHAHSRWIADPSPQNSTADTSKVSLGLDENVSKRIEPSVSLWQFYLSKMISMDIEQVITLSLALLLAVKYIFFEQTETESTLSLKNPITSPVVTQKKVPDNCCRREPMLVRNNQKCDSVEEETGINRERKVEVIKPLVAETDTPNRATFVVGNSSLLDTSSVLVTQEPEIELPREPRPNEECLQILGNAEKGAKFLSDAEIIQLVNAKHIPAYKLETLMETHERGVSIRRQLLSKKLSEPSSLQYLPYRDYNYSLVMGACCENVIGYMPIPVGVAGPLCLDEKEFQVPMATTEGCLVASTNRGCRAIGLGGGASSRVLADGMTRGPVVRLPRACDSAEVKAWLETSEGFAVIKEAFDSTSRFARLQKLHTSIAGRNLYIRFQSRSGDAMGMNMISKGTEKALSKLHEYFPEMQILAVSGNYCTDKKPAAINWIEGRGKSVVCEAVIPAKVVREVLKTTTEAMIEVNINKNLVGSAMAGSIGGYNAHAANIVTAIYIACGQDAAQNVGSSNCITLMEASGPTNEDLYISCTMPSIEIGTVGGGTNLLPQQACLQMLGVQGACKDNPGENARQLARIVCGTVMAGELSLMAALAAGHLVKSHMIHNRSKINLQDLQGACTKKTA
Method in brief: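 Western blot read-out: HMGCR protein probed (1:500, 16 hours at 4° C) alongside GAPDH loading control on 15 μg BCA-normalised RIPA lysates. Lysates came from HepG2 cells (P105–P110) exposed for 18 hours to a 10-point, three-fold series starting at 3 μM.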

Structure (SMILES) | DC50
C[C@H]1C=C2C=C[C@H](C)[C@H](CC[C@@H]3C[C@@H](O)CC(=O)O3)[C@H]2[C@@H](OC(=O)NCCCCCN2CCC(Nc3cccc4c3C(=O)N(C3CCC(=O)NC3=O)C4=O)CC2)C1 (stereo partly drawn) [Compound 126, (1S,3R,7S,8S,8aR)-8-(2-((2R,4R)-4-hydroxy-6-oxotetrahydro-2H-pyran-2-yl)ethyl)-3,7-dimethyl-1,2,3,7,8,8a-hexahydronaphthalen-1-yl (5-(4-((2-(2,6-dioxopiperidin-3-yl)-1,3-dioxoisoindolin-4-yl)amino)piperidin-1-yl)pentyl)carbamate] | < 0.05 µM
C[C@H]1C=C2C=C[C@H](C)[C@H](CC[C@@H]3C[C@@H](O)CC(=O)O3)[C@H]2[C@@H](OC(=O)NCCCCCCN2CCC(Nc3cccc4c3C(=O)N(C3CCC(=O)NC3=O)C4=O)CC2)C1 (stereo partly drawn) [Compound 127, (1S,3R,7S,8S,8aR)-8-(2-((2R,4R)-4-hydroxy-6-oxotetrahydro-2H-pyran-2-yl)ethyl)-3,7-dimethyl-1,2,3,7,8,8a-hexahydronaphthalen-1-yl (6-(4-((2-(2,6-dioxo piperidin-3-yl)-1,3-dioxoisoindolin-4-yl)amino)piperidin-1-yl)hexyl)carbamate] | 0.05 to 0.5 µM
C[C@H]1C=C2C=C[C@H](C)[C@H](CC[C@@H]3C[C@@H](O[Si](C)(C)C(C)(C)C)CC(=O)O3)[C@H]2[C@@H](OC(=O)NCCOCCNC(=O)COc2cccc3c2C(=O)N(C2CCC(=O)NC2=O)C3=O)C1 (stereo partly drawn) [Compound 128, (1S,3R,7S,8S,8aR)-8-(2-((2R,4R)-4-((tert-butyldimethylsilyl)oxy)-6-oxotetrahydro-2H-pyran-2-yl)ethyl)-3,7-dimethyl-1,2,3,7,8,8a-hexahydronaphthalen-1-yl (2-(2-(2-((2-(2,6-dioxopiperidin-3-yl)-1,3-dioxoisoindolin-4-yl)oxy)acetamido)ethoxy)ethyl)carbamate] | < 0.05 µM
C[C@H]1C=C2C=C[C@H](C)[C@H](CC[C@@H]3C[C@@H](O)CC(=O)O3)[C@H]2[C@@H](OC(=O)NCCOCCNC(=O)COc2cccc3c2C(=O)N(C2CCC(=O)NC2=O)C3=O)C1 (stereo partly drawn) [Compound 129, (1S,3R,7S,8S,8aR)-8-(2-((2R,4R)-4-hydroxy-6-oxotetrahydro-2H-pyran-2-yl)ethyl)-3,7-dimethyl-1,2,3,7,8,8a-hexahydronaphthalen-1-yl (2-(2-(2-((2-(2,6-dioxopiperidin-3-yl)-1,3-dioxoisoindolin-4-yl)oxy)acetamido)ethoxy)ethyl)carbamate] | < 0.05 µM
C[C@H]1C=C2C=C[C@H](C)[C@H](CC[C@@H]3C[C@@H](O[Si](C)(C)C(C)(C)C)CC(=O)O3)[C@H]2[C@@H](OC(=O)NCCCOC2CCN(C(=O)COc3cccc4c3C(=O)N(C3CCC(=O)NC3=O)C4=O)CC2)C1 (stereo partly drawn) [Compound 134, (1S,3R,7S,8S,8aR)-8-(2-((2R,4R)-4-((tert-butyldimethylsilyl)oxy)-6-oxotetrahydro-2H-pyran-2-yl)ethyl)-3,7-dimethyl-1,2,3,7,8,8a-hexahydronaphthalen-1-yl (3-((1-(2-((2-(2,6-dioxopiperidin-3-yl)-1,3-dioxoisoindolin-4-yl)oxy)acetyl)piperidin-4-yl)oxy)propyl)carbamate] | 0.05 to 0.5 µM
C[C@H]1C=C2C=C[C@H](C)[C@H](CC[C@@H]3C[C@@H](O)CC(=O)O3)[C@H]2[C@@H](OC(=O)NCCCOC2CCN(C(=O)COc3cccc4c3C(=O)N(C3CCC(=O)NC3=O)C4=O)CC2)C1 (stereo partly drawn) [Compound 135, (1S,3R,7S,8S,8aR)-8-(2-((2R,4R)-4-hydroxy-6-oxotetrahydro-2H-pyran-2-yl)ethyl)-3,7-dimethyl-1,2,3,7,8,8a-hexahydronaphthalen-1-yl (3-((1-(2-((2-(2,6-dioxopiperidin-3-yl)-1,3-dioxoisoindolin-4-yl)oxy)acetyl)piperidin-4-yl)oxy)propyl)carbamate] | < 0.05 µM
C[C@H]1C=C2C=C[C@H](C)[C@H](CC[C@@H]3C[C@@H](O[Si](C)(C)C(C)(C)C)CC(=O)O3)[C@H]2[C@@H](OC(=O)NCCOCCOCCNC(=O)COc2cccc3c2C(=O)N(C2CCC(=O)NC2=O)C3=O)C1 (stereo partly drawn) [Compound 138, (1S,3R,7S,8S,8aR)-8-(2-((2R,4R)-4-((tert-butyldimethylsilyl)oxy)-6-oxotetrahydro-2H-pyran-2-yl)ethyl)-3,7-dimethyl-1,2,3,7,8,8a-hexahydronaphthalen-1-yl (2-(2-(2-(2-((2-(2,6-dioxopiperidin-3-yl)-1,3-dioxoisoindolin-4-yl)oxy)acetamido)ethoxy)ethoxy)ethyl)carbamate] | < 0.05 µM
C[C@H]1C=C2C=C[C@H](C)[C@H](CC[C@@H]3C[C@@H](O)CC(=O)O3)[C@H]2[C@@H](OC(=O)NCCOCCOCCNC(=O)COc2cccc3c2C(=O)N(C2CCC(=O)NC2=O)C3=O)C1 (stereo partly drawn) [Compound 139, (1S,3R,7S,8S,8aR)-8-(2-((2R,4R)-4-hydroxy-6-oxotetrahydro-2H-pyran-2-yl)ethyl)-3,7-dimethyl-1,2,3,7,8,8a-hexahydronaphthalen-1-yl (2-(2-(2-(2-((2-(2,6-dioxopiperidin-3-yl)-1,3-dioxoisoindolin-4-yl)oxy)acetamido)ethoxy)ethoxy)ethyl)carbamate] | 0.05 to 0.5 µM
C[C@H]1C=C2C=C[C@H](C)[C@H](CC[C@@H]3C[C@@H](O[Si](C)(C)C(C)(C)C)CC(=O)O3)[C@H]2[C@@H](OC(=O)NCCOCCOCC(=O)Nc2cccc3c2C(=O)N(C2CCC(=O)NC2=O)C3=O)C1 (stereo partly drawn) [Compound 142, (1S,3R,7S,8S,8aR)-8-(2-((2R,4R)-4-((tert-butyldimethylsilyl)oxy)-6-oxotetrahydro-2H-pyran-2-yl)ethyl)-3,7-dimethyl-1,2,3,7,8,8a-hexahydronaphthalen-1-yl (2-(2-(2-((2-(2,6-dioxopiperidin-3-yl)-1,3-dioxoisoindolin-4-yl)amino)-2-oxoethoxy)ethoxy)ethyl)carbamate] | 0.05 to 0.5 µM
C[C@H]1C=C2C=C[C@H](C)[C@H](CC[C@@H]3C[C@@H](O)CC(=O)O3)[C@H]2[C@@H](OC(=O)NCCOCCOCC(=O)Nc2cccc3c2C(=O)N(C2CCC(=O)NC2=O)C3=O)C1 (stereo partly drawn) [Compound 143, (1S,3R,7S,8S,8aR)-8-(2-((2R,4R)-4-hydroxy-6-oxotetrahydro-2H-pyran-2-yl)ethyl)-3,7-dimethyl-1,2,3,7,8,8a-hexahydronaphthalen-1-yl (2-(2-(2-((2-(2,6-dioxopiperidin-3-yl)-1,3-dioxoisoindolin-4-yl)amino)-2-oxoethoxy)ethoxy)ethyl)carbamate] | < 0.05 µM
C[C@H]1C=C2C=C[C@H](C)[C@H](CC[C@@H]3C[C@@H](O[Si](C)(C)C(C)(C)C)CC(=O)O3)[C@H]2[C@@H](OC(=O)NCCOCC(=O)NCC(=O)Nc2cccc3c2C(=O)N(C2CCC(=O)NC2=O)C3=O)C1 (stereo partly drawn) [Compound 144, (1S,3R,7S,8S,8aR)-8-(2-((2R,4R)-4-((tert-butyldimethylsilyl)oxy)-6-oxotetrahydro-2H-pyran-2-yl)ethyl)-3,7-dimethyl-1,2,3,7,8,8a-hexahydronaphthalen-1-yl (2-(2-((2-((2-(2,6-dioxopiperidin-3-yl)-1,3-dioxoisoindolin-4-yl)amino)-2-oxoethyl)amino)-2-oxoethoxy)ethyl)carbamate] | 0.05 to 0.5 µM
C[C@H]1C=C2C=C[C@H](C)[C@H](CC[C@@H]3C[C@@H](O)CC(=O)O3)[C@H]2[C@@H](OC(=O)NCCOCC(=O)NCC(=O)Nc2cccc3c2C(=O)N(C2CCC(=O)NC2=O)C3=O)C1 (stereo partly drawn) [Compound 145, (1S,3R,7S,8S,8aR)-8-(2-((2R,4R)-4-hydroxy-6-oxotetrahydro-2H-pyran-2-yl)ethyl)-3,7-dimethyl-1,2,3,7,8,8a-hexahydronaphthalen-1-yl (2-(2-((2-((2-(2,6-dioxopiperidin-3-yl)-1,3-dioxoisoindolin-4-yl)amino)-2-oxoethyl)amino)-2-oxoethoxy)ethyl)carbamate] | < 0.05 µM

Source: patent US12479840B2, “HMG-CoA reductase degradation inducing compound” (Uppthera, priority 2020, dated 2025)
